Literature values, collected in patent publication US12258594B2, “Cas proteins with reduced immunogenicity and methods of screening thereof” (THE BROAD INSTITUTE, INC., priority 2018, dated 2025).

Tested on: target DNA
Settings: AsCpf1 mutants

Row | Compound | DNA cleavage activity
1 | 51228A: mutant of Ser1228 of AsCpf1 | comparable to that of wild-type AsCpf1
2 | D908A: D908A mutant of AsCpf1 | almost no activity
3 | D1235A: D1235A mutant of AsCpf1 | reduced activity
4 | D1263A: D1263A mutant of AsCpf1 | significantly reduced activity
5 | E993A: E993A mutant of AsCpf1 | almost no activity
6 | G783P: G783P mutant of AsCpf1 | reduced activities
7 | K548A: K548A mutant of AsCpf1 | reduced activities
8 | K607A: K607A mutant of AsCpf1 | almost no activity
9 | M604A: M604A mutant of AsCpf1 | reduced activities
10 | R176A: R176A mutant of AsCpf1 | reduced activities
11 | R192A: R192A mutant of AsCpf1 | reduced activities
12 | R951A: R951A mutant of AsCpf1 | reduced activities
13 | R1226A: R1226A mutant of AsCpf1 | almost no activity
14 | W382A: W382A mutant of AsCpf1 | reduced activity

Same assay, conditions: AsCpf1 mutants, target and non-target strand

Row | Compound | DNA strand cleaved
15 | R1226A: R1226A mutant of AsCpf1 | acts as a nickase that cleaves the non-target DNA strand, but not the target strand

Tested on: Factor VII
Settings: LNP siRNA systems containing the lipid; hepatocytes in vivo

Row | Compound | gene silencing potencies, series (rank order)
16 | 1,2-dilinoleyloxy-keto-N,N-dimethyl-3-aminopropane [DLinKDMA] | DLinKC2-DMA>DLinKDMA>DLinDMA>>DLinDAP
17 | CCCCC/C=C\C/C=C\CCCCCCCC(=O)OCC(CN(C)C)OC(=O)CCCCCCC/C=C\C/C=C\CCCCC (stereo not shown) [DLinDAP, 1,2-dilineoyl-3-dimethylammonium-propane] | DLinKC2-DMA>DLinKDMA>DLinDMA>>DLinDAP
18 | CCCCC/C=C\C/C=C\CCCCCCCCOCC(CN(C)C)OCCCCCCCC/C=C\C/C=C\CCCCC (stereo not shown) [DLinDMA, 1,2-dilinoleyloxy-3-N,N-dimethylaminopropane] | DLinKC2-DMA>DLinKDMA>DLinDMA>>DLinDAP
19 | CCCCC/C=C\C/C=C\CCCCCCCCC1(CCCCCCCC/C=C\C/C=C\CCCCC)OCC(CCN(C)C)O1 (stereo not shown) [DLinKC2-DMA, 1,2-dilinoleyl-4-(2-dimethylaminoethyl)-[1,3]-dioxolane] | DLinKC2-DMA>DLinKDMA>DLinDMA>>DLinDAP

Tested on: target sites with PAM
Settings: AsCpf1 and variants

Row | Compound | PAM of target sites that can be cleaved
20 | AsCpf1: Acidaminococcus sp. BV3L6 Cpf1 | TTTV
21 | S542R/K548V/N552R: AsCpf1 variant with the mutations S542R/K548V/N552R | TATV
22 | S542R/K607R: AsCpf1 variant with the mutations S542R/K607R | TYCV/CCCC

Same assay, conditions: in vitro and in human cells

Row | Compound | activities at the altered PAMs
23 | S542R/K548V/N552R: AsCpf1 variant with the mutations S542R/K548V/N552R | enhanced activities
24 | S542R/K607R: AsCpf1 variant with the mutations S542R/K607R | enhanced activities

Tested on: dystrophin gene exon 51
Settings: across 48 weeks

Row | Compound | average dystrophin positive fibers compared to baseline [%]
25 | eteplirsen | 47
